Legend:
[1] = test system: EOL-1 (eosinophilic leukaemia, carrying the fusion FIP1L1-PDGFRA); assay: Calcein AM cytotoxicity assay; assay type: cell-based; conditions: Homo sapiens, EOL1, 72 h; EOL-1; Calcein AM, three days; read-out: EC50 values (μM) EOL-1
Source text: (§1) Cytotoxicity of the compounds is the major property determining their anticancer effect in vivo. One of the parameters used, as the basis for cytotoxicity assays, is the integrity of cytoplasmic membrane of viable cells. For example, a microtiter assay, which uses acetomethoxy derivate of calcein (Calcein AM), is widely used for evaluation of cell proliferation and cytotoxicity. This assay is used in drug screening programs and in chemosensitivity testing. Intracellular esterases of viable cells convert calcein AM to green-fluorescent calcein of which signal corresponds to the number of viable cells in the culture.
(§2) We have been using the following cell lines: MV4-11 (acute myeloid leukemia, FLT3-ITD positive), MOLM-13 (acute myeloid leukemia, FLT3-ITD positive), THP-1 (acute myeloid leukemia, wt FLT3), U937 (monocytic leukemia, wt FLT3), EOL-1 (eosinophilic leukaemia, carrying the fusion FIP1L1-PDGFRA), H1703 (non-small cell lung carcinoma, PDGFRA amplification). […] K562 and MCF-7 cell lines were maintained in DMEM supplemented with 10% fetal bovine serum, penicilin (100 U/ml) and streptomycin (100 μg/ml). All cell lines were cultivated at 37° C. in 5% CO2. For cytotoxicity assays, cells were seeded in appropriate densities into 96 well plates and the next day tested compounds were added at various concentrations in triplicates. Three days after drug addition, Calcein AM solution (final concentration 1 μg/ml; Thermo Scientific, USA) was added into each well and incubated for 1 h.

[2] = test system: MV4-11 (acute myeloid leukemia, FLT3-ITD positive); assay: Calcein AM cytotoxicity assay; assay type: cell-based; conditions: Homo sapiens, 72 h; MV4-11; Calcein AM, three days after drug addition; read-out: EC50 values (μM) MV4-11
Source text: as §1, §2

CDK2/Cyclin E = molecular target: T1, CDK2/Cyclin E (Homo sapiens, UniProt P24941); assay: Kinase inhibition assay with [γ-33P]ATP; assay type: biochemical; conditions: histone H1, 15 μM ATP; read-out: IC50 values (μM) CDK2
T1 construct: made in house; host or cells: Sf9 insect cells, baculoviral infection
Description: (§3) CDK1/Cyclin B and CDK2/Cyclin E kinases were produced in Sf9 insect cells via baculoviral infection and purified on a NiNTA column (Qiagen). CDK5/p35 and CDK7Cyclin H/MAT1, FLT3 WT, FLT3-ITD and FLT3 D835 were purchased from ProQinase GmbH. The kinase reactions were assayed with 1 mg/mL histone H1 (for CDK1, CDK2 and CDK5), (YSPTSPS)2KK peptide (for CDK7) or AGLT substrate (for FLT3) in the presence of 15/15/0.15/1.5/1 μM ATP (for CDK1/CDK2/CDK5/CDK7/FLT3), 0.05 μCi [γ-^33P]ATP and of the test compound in a final volume of 10 μL, all in a reaction buffer (60 mM HEPES-NaOH, pH 7.5, 3 mM MgCl2, 3 mM MnCl2, 3 μM Na-orthovanadate, 1.2 mM DTT, 2.5 μg/50 μl PEG20,000). The reactions were stopped by adding 5 μL of 3% aq H3PO4. Aliquots were spotted onto P-81 phosphocellulose (Whatman), washed 3× with 0.5% aq H3PO4 and finally air-dried.

[3] = test system: Kasumi-1 (acute myeloid leukemia, KIT mutation Asn822Lys); assay: Calcein AM cytotoxicity assay; assay type: cell-based; conditions: Homo sapiens, 72 h; Kasumi-1; Calcein AM, three days; read-out: EC50 values (μM) Kasumi-1
Source text: as §1
We have been using the following cell lines: MV4-11 (acute myeloid leukemia, FLT3-ITD positive), MOLM-13 (acute myeloid leukemia, FLT3-ITD positive), THP-1 (acute myeloid leukemia, wt FLT3), U937 (monocytic leukemia, wt FLT3), EOL-1 (eosinophilic leukaemia, carrying the fusion FIP1L1-PDGFRA), H1703 (non-small cell lung carcinoma, PDGFRA amplification). They were maintained in RPMI-1640 supplemented with 10% fetal bovine serum, penicillin (100 U/ml) and streptomycin (100 μg/ml). Kasumi-1 (acute myeloid leukemia, KIT mutation Asn822Lys) cells were cultivated in RPMI-1640 supplemented with 15% fetal bovine serum, penicillin (100 U/ml) and streptomycin (100 μg/ml). K562 and MCF-7 cell lines were maintained in DMEM supplemented with 10% fetal bovine serum, penicilin (100 U/ml) and streptomycin (100 μg/ml). All cell lines were cultivated at 37° C. in 5% CO2. For cytotoxicity assays, cells were seeded in appropriate densities into 96 well plates and the next day tested compounds were added at various concentrations in triplicates. Three days after drug addition, Calcein AM solution (final concentration 1 μg/ml; Thermo Scientific, USA) was added into each well and incubated for 1 h. After this incubation period, fluorescence of the live cells was measured at 485 nm/538 nm (ex/em) with a Fluoroskan Ascent microplate reader (Labsystems).

K562 = assay: Calcein AM cytotoxicity assay; assay type: cell-based; conditions: Homo sapiens, 72 h; K562; Calcein AM, three days; read-out: EC50 values (μM) K562
Source text: as §1, §2

[4] = test system: MOLM-13 (acute myeloid leukemia, FLT3-ITD positive); assay: Calcein AM cytotoxicity assay; assay type: cell-based; conditions: Homo sapiens, 72 h; MOLM-13; Calcein AM, three days; read-out: EC50 values (μM) MOLM-13
Source text: as §1, §2

[5] = test system: U937 (monocytic leukemia, wt FLT3); assay: Calcein AM cytotoxicity assay; assay type: cell-based; conditions: Homo sapiens, U-937, 72 h; U937; Calcein AM, three days; read-out: EC50 values (μM) U937
Source text: as §1, §2

[6] = test system: THP-1 (acute myeloid leukemia, wt FLT3); assay: Calcein AM cytotoxicity assay; assay type: cell-based; conditions: Homo sapiens, 72 h; THP-1; Calcein AM, three days; read-out: EC50 values (μM) THP-1
Source text: as §1, §2

MCF-7 = assay: Calcein AM cytotoxicity assay; assay type: cell-based; conditions: Homo sapiens, MCF7, 72 h; MCF-7; Calcein AM, three days; read-out: EC50 values (μM) MCF-7
Source text: as §1, §2

FLT3 WT = molecular target: T2, FLT3 WT (Homo sapiens, UniProt P36888); assay: Kinase inhibition assay with [γ-33P]ATP; assay type: biochemical; conditions: AGLT substrate, 1 μM ATP
T2 construct: purchased ProQinase GmbH
T2 sequence (P36888 27-993): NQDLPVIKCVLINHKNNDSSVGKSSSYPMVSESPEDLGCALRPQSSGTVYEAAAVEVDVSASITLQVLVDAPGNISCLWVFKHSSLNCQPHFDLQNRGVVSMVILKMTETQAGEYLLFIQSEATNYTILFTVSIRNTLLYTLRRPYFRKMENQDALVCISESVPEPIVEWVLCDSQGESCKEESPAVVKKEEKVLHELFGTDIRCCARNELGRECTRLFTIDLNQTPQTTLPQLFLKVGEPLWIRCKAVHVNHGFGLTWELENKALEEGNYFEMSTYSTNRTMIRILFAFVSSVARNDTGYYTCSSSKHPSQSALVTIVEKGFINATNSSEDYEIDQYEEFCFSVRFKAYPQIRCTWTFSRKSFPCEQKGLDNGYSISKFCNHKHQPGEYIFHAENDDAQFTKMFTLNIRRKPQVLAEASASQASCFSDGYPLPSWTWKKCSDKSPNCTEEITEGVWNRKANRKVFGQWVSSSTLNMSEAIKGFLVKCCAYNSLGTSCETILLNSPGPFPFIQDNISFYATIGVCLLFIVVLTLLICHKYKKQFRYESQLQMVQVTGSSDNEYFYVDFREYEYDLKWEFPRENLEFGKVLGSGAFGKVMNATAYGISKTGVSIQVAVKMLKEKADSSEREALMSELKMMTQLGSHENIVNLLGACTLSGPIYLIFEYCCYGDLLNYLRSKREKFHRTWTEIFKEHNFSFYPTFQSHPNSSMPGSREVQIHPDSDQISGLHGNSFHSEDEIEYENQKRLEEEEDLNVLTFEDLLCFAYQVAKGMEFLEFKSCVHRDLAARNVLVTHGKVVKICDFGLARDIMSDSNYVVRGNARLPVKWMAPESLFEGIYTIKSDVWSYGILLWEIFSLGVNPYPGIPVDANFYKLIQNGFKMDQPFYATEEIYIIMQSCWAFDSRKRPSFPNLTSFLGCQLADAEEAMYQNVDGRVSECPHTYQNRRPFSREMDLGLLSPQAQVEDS
Description: as §3

Row | IC50 (CDK2/Cyclin E) | IC50 (FLT3 WT) | Compound | EC50 [1] | EC50 [2] | EC50 [3] | EC50 (K562) | EC50 [4] | EC50 [5] | EC50 [6] | EC50 (MCF-7)
1 | 0.951 µM | – | c1cc(N2CCOCC2)ncc1Nc1nc(N2CCOCC2)nc2c1ncn2C1CCCC1 [Compound 46] | 0.377 µM | 0.02 µM | – | – | – | – | – | –
2 | – | – | CN1CCN(c2nc(Nc3ccc(N4CCNCC4)nc3)c3ncn(C4CCCC4)c3n2)CC1 [Compound 58] | 0.056 µM | 0.017 µM | 0.492 µM | 0.695 µM | 0.017 µM | 0.794 µM | 1.13 µM | 0.44 µM
3 | 0.028 µM | 0.021 µM | CCN1CCN(C(=O)c2ccc(Nc3nc(N4CCN(C)CC4)nc4c3ncn4C3CCCC3)cn2)CC1 [Compound 60] | – | – | – | – | – | – | – | –
4 | – | – | NC(=O)CCNc1nc(Nc2ccc(C(=O)N3CCOCC3)nc2)c2ncn(C3CCCC3)c2n1 [Compound 149] | – | 0.007 µM | 1.01 µM | 1.17 µM | – | – | – | 0.688 µM
5 | 2.6 µM | – | CCN1CCN(C(=O)c2ccc(Nc3nc(NCCCC(N)=O)nc4c3ncn4C3CCCC3)cn2)CC1 [Compound 155] | – | 0.164 µM | – | 5.17 µM | – | – | – | 4.71 µM
6 | 0.006 µM | – | NC(=O)CCCCNc1nc(Nc2ccc(N3CC4(CNC4)C3)cc2)c2ncn(C3CCCC3)c2n1 [Compound 156] | – | 0.001 µM | – | 0.84 µM | – | – | – | 0.697 µM
7 | 16.4 µM | – | CN(C)CCCNc1nc(Nc2ccc(N3CCN(C)CC3)cc2)c2ncn(C3CCCC3)c2n1 [Compound 174] | – | – | – | – | – | – | – | –
8 | – | – | CN(C)CCCCNc1nc(Nc2ccc(N3CCOCC3)nc2)c2ncn(C3CCCC3)c2n1 [Compound 183] | 0.014 µM | 0.0005 µM | 0.183 µM | 0.98 µM | 0.005 µM | 0.4 µM | 0.36 µM | 0.665 µM
9 | 0.003 µM | 0.02 µM | CN(C)CCCCNc1nc(Nc2ccc(C(=O)N3CCN(C)CC3)nc2)c2ncn(C3CCCC3)c2n1 [Compound 185] | – | – | – | – | – | – | – | –
10 | 0.008 µM | – | NC1CCC(Nc2nc(Nc3ccc(N4CCOCC4)nc3)c3ncn(C4CCCC4)c3n2)CC1 (stereo not shown) [Compound 269] | 0.01 µM | 0.004 µM | – | 1.35 µM | – | 1.49 µM | – | 0.96 µM
11 | 1.98 µM | 0.073 µM | c1cc(Nc2nc(N3CCCCC3)nc3c2ncn3C2CCCC2)ccc1CN1CCOCC1 [Compound 271] | 1.37 µM | 0.701 µM | 2.16 µM | 8.28 µM | 0.431 µM | 7.62 µM | > 10 µM | 12.3 µM
12 | 1.17 µM | – | OCCNc1nc(Nc2ccc(CN3CCOCC3)cc2)c2ncn(C3CCCC3)c2n1 [Compound 274] | 0.503 µM | 0.074 µM | – | – | – | – | – | –
13 | 3.01 µM | – | OCCCNc1nc(Nc2ccc(CN3CCOCC3)cc2)c2ncn(C3CCCC3)c2n1 [Compound 275] | 0.73 µM | 0.066 µM | – | – | – | – | – | –
14 | 1.8 µM | – | OCCCCNc1nc(Nc2ccc(CN3CCOCC3)cc2)c2ncn(C3CCCC3)c2n1 [Compound 276] | – | 0.029 µM | – | – | – | – | – | –

Row | Compound | IC50 (CDK2/Cyclin E) | IC50 (FLT3 WT) | EC50 [1] | EC50 [2] | EC50 [3] | EC50 (K562) | EC50 [4] | EC50 [5] | EC50 [6] | EC50 (MCF-7)
15 | CN(C)CCCCNc1nc(Nc2ccc(C(=O)N3CCOCC3)cc2)c2ncn(C3CCCC3)c2n1 [Compound 182] | 0.005 µM | 0.013 µM | 0.04 µM | 0.002 µM | 1.68 µM | 4.21 µM | 0.017 µM | 0.631 µM | 1.5 µM | 1.59 µM
16 | CN1CC2(C1)CN(Cc1ccc(Nc3nc(NCC(O)CN)nc4c3ncn4C3CCCC3)cc1)C2 (stereo not shown) [Compound 199] | 0.005 µM | 0.013 µM | – | 0.011 µM | 0.227 µM | 1.36 µM | 0.043 µM | 1 µM | 0.925 µM | 0.67 µM

— patent US11028087B2, “2,6-disubstituted-9-cyclopentyl-9H-purines, use thereof as medicaments, and pharmaceutical compositions” (UNIVERZITA PALACKEHO V OLOMOUCI, priority 2017, dated 2021)
